Patent US20190352276A1, “INHIBITORS OF BRUTON'S TYROSINE KINASE” (Joint Stock Company "Biocad", priority 2016, published 2019)

Assays:
[1] = Stability in human blood plasma; details: 10 μM in pooled human blood plasma, incubated 4 hours at 37° C.
[2] = Chemical stability in artificial gastric fluid (SGF without enzymes); details: 10 μM in SGF without enzymes, pH=1.4, 37° C.
Method: The initial candidate solution (10 mM in DMSO) was diluted with the working solution of SGF to the concentration of 10 μm (test solution). The test solution was incubated in a dry block heater at 37° C. We determined peak areas of the compounds corresponding to the start of the test (before incubating) and the end of the test (after incubating in a dry block heater at 37° C.) by HPLC using Agilent1200 chromatograph (Agilent, USA). We used gradient elution (1 mL/min flow rate). We determined amount of substance in the sample in % after incubation.
We evaluated the stability of the compounds.

[3] = test system: Mino (mantle cell lymphoma); assay: Antiproliferative activity, Mino cells (Alamar Blue); assay type: cell-based; details: Homo sapiens, Table 10, 72 h, average of several tests
Method: (§1) Antiproliferative activity of BTK inhibitors was measured in cell-based bioassay on B-cells cultures: Mino (mantle cell lymphoma, ATCC® CRL-3000™), Z-138 (mantle cell lymphoma, ATCC® CRL-3001™) and DOHH2 (follicular lymphoma, Creative Bioarray CSC-C0219) using cell viability reagent Alamar Blue (Invitrogen, #DAL 1100). Cells were cultured in 10% FB S-supplemented (HyClone, #SH3008803/Gibco, #16140-071) RPMI-1640 (PanEco, #S330p) for at least 1 passage after thawing, washed with PBS and passaged in 96-well culture plates (Corning, #3599) with growth medium with 10% FBS (HyClone, #SH3008803/Gibco, #16140-071) and antibiotic (50 μg/ml of gentamicin (Biolot, #1.3.16))≈3*10^4 cells in 50 μl of medium per well.
(§2) The compounds were dissolved in DMSO and diluted with the assay medium to final concentrations ranging from […]. 150 μl of each diluted compound were then added to each well (final concentration of DMSO was less than 1%) and incubated at 37° C. in an incubator under 5% of CO2 for 72 h. After incubation, 20 μl of Alamar Blue reagent (Invitrogen, #DAL1100) were added to each well. The plates were shaked on an orbital shaker (Biosan, Latvia) and then incubated for 14-16 hours at 37° C. in the incubator.
(§3) The number of living cells were estimated, measuring the fluorescence signal at the excitation wavelength (REx) of 540 nm and the emission wavelength (λEm) of 590 nm on a microplate reader (Tecan Infinite M200Pro, Switzerland).
(§4) For each compound, IC50 was calculated using Magellan 7.2 software (Tecan, Switzerland) approximating experimental points by four-parameter logistic model with the optimization by Levenberg-Marquardt.

[4] = test system: Z-138 (mantle cell lymphoma); assay: Antiproliferative activity, Z-138 cells (Alamar Blue); assay type: cell-based; details: Homo sapiens, Table 10, 72 h, average of several tests
Method: as §1, §2, §3, §4

[5] = General cytotoxicity on HepG2 cells (CC50; therapeutic index CC50 HepG2/IC50 Mino); assay type: cell-based; details: human, HepG2 cells (hepatocellular carcinoma); Table 10; 72 hours, Alamar Blue; average of several tests
Method: (§5) The CC50 values were determined in the test for General cytotoxicity on HepG2 cells (hepatocellular carcinoma, ATCC® HB-8065™). 2*10^4 cells (in 50 μl) per well were seeded in 96-well plates (Corning, #3599) in DMEM medium (PanEco, #S420p), after 24 h of incubation 150 μl of candidate compounds were added to each well in the range of final concentrations from 200 μM to 4 μM and the plate was incubated in a total volume of 200 μl for 72 hours. Viability of the cells was assessed using Alamar Blue dye (Invitrogen, #DAL 1100). CC50 was determined similarly (table 10).
(§6) The relationship between toxic (CC50) and a therapeutic (IC50) effects of the dose is the therapeutic index, which can be expressed as the ratio between CC50 (HepG2) (general cytotoxicity of the candidate) and IC50 (Mino) (antiproliferative activity on the target cells): […]

[6] = test system: HepG2 cells (hepatocellular carcinoma); assay: as above; assay type: cell-based; details: Table 10; therapeutic index
Method: as §5, §6

Row | Compound | Amount of substance in the sample, % (stability in human blood plasma) [1] | Amount of substance in the sample in % (chemical stability) [2] | also measured
1 | C=CC(=O)N1CCC[C@@H](n2nc(-c3ccc(Oc4ccncc4)cc3)c3cncc(Cl)c32)C1 [BCD-BTK -125, (R)-1-(1-acryloylpiperidin-3-yl)-7-chloro-3-(4-(pyridin-4-yloxy)phenyl)-1H-pyrazolo[4,3-c]pyridine] | 97.8% |  | 
2 | C=CC(=O)N1CCC[C@@H](n2nc(-c3ccc(Oc4ccncc4)cc3)c3c(N)ncc(C#N)c32)C1 [BCD-BTK -134, (R)-1-(1-acryloylpiperidin-3-yl)-4-amino-3-(4-(pyridin-4-yloxy)phenyl)-1H-pyrazolo[4,3-c]pyridin-7-carbonitrile] | 89.7% |  | 
3 | C=CC(=O)N1CCC[C@@H](n2nc(-c3ccc(Oc4ccncc4)cc3)c3c(N)ncc(Cl)c32)C1 [BCD-BTK -139, (R)-1-(1-acryloylpiperidin-3-yl)-7-chloro-3-(4-(pyridin-4-yloxy)phenyl)-1H-pyrazolo[4,3-c]pyridin-4-amine] | 87.1% |  | 
4 | C=CC(=O)N1CCC[C@@H](n2nc(-c3ccc(C(=O)Nc4ccc(F)cn4)cc3)c3c(N)ncc(Cl)c32)C1 [BCD-BTK -237, 4-{4-amino-7-chloro-1-[(3R)-1-(prop-2-enoyl)piperidin-3-yl]-1H-pyrazolo[4,3-c]pyridin-3-yl}-N-(5-fluoropyridin-2-yl)benzamide] | 95.5% | 100% | 
5 | C=CC(=O)N1CCC[C@@H](n2nc(-c3ccc(C(=O)Nc4cc(C(F)(F)CCC)ccn4)cc3)c3cncc(F)c32)C1 [BCD-BTK -247, (R)-4-(1-(1-acryloylpiperidin-3-yl)-7-fluoro-1H-pyrazolo[4,3-c]pyridin-3-yl)-N-(4-(1,1-difluorobutyl)pyridin-2-yl)benzamide] | 87.3% | 100% | 
6 | C=CC(=O)N1CCC[C@@H](n2nc(-c3ccc(C(=O)Nc4cccc(F)n4)cc3)c3c(N)ncc(Cl)c32)C1 [BCD-BTK -250, (R)-4-(1-(1-acryloylpiperidin-3-yl)-4-amino-7-chloro-1H-pyrazolo[4,3-c]pyridin-3-yl)-N-(6-fluoropyridin-2-yl)benzamide] | 84.5% |  | 
7 | C=CC(=O)N1CCC[C@@H](n2nc(-c3ccc(C(=O)Nc4cc(C(F)(F)F)ccn4)cc3)c3c(N)ncc(Cl)c32)C1 [BCD-BTK -251, (R)-4-(1-(1-acryloylpiperidin-3-yl)-4-amino-7-chloro-1H-pyrazolo[4,3-c]pyridin-3-yl)-N-(4-(trifluoromethyl)pyridin-2-yl)benzamide] | 89.2% |  | 
8 | C=CC(=O)N1CCC[C@@H](n2nc(-c3ccc(C(=O)Nc4cc(C(F)(F)CCC)ccn4)cc3)c3cncc(Cl)c32)C1 [BCD-BTK -252, (R)-4-(1-(1-acryloylpiperidin-3-yl)-7-chloro-1H-pyrazolo[4,3-c]pyridin-3-yl)-N-(4-(1,1-difluorobutyl)pyridin-2-yl)benzamide] | 85.2% |  | 
9 | C=CC(=O)N1CCC[C@@H](n2nc(-c3ccc(C(=O)Nc4cc(C(F)(F)CCC)ccn4)cc3)c3c(N)ncc(Cl)c32)C1 [BCD-BTK -254, (R)-4-(1-(1-acryloylpiperidin-3-yl)-4-amino-7-chloro-1H-pyrazolo[4,3-c]pyridin-3-yl)-N-(4-(1,1-difluorobutyl)pyridin-2-yl)benzamide] | 93.0% |  | 
10 | C=CC(=O)N1CCC[C@@H](n2nc(-c3cnc(C(=O)Nc4cc(C(F)(F)CCC)ccn4)nc3)c3cncc(Cl)c32)C1 [BCD-BTK -292, (R)-5-(1-(1-acryloylpiperidin-3-yl)-7-chloro-1H-pyrazolo[4,3-c]pyridin-3-yl)-N-(4-(1,1-difluorobutyl)pyridin-2-yl)pyrimidine-2-carboxamide] | 93.3% |  | 
11 | C=CC(=O)N1CCC[C@@H](n2nc(-c3cnc(C(=O)Nc4cc(C(F)(F)CC)ccn4)nc3)c3cncc(Cl)c32)C1 [BCD-BTK -293, (R)-5-(1-(1-acryloylpiperidin-3-yl)-7-chloro-1H-pyrazolo[4,3-c]pyridin-3-yl)-N-(4-(1,1-difluoropropyl)pyridin-2-yl)pyrimidine-2-carboxamide] | 85.7% |  | 
12 | CC#CC(=O)N1CCC[C@@H](n2nc(-c3ccc(C(=O)Nc4ccccn4)cc3)c3c(N)ncc(Cl)c32)C1 [BCD-BTK -295, (R)-4-(4-amino-1-(1-(but-2-ynoyl)piperidin-3-yl)-7-chloro-1H-pyrazolo[4,3-c]pyridin-3-yl)-N-(pyridin-2-yl)benzamide] | 100.0% |  | 
13 | C=CC(=O)N1CCC[C@@H](n2nc(-c3cnc(-n4ccc(=O)c(C#N)c4)nc3)c3cncc(Cl)c32)C1 [BCD-BTK-206, (R)-1-(5-(1-(1-acryloylpiperidin-3-yl)-7-chloro-1H-pyrazolo[4,3-c]pyridin-3-yl)pyrimidin-2-yl)-4-oxo-1,4-dihydropyridine-3-carbonitrile] | 87.6% |  | 
14 | C=CC(=O)N1CCC[C@@H](n2nc(-c3cnc(-n4ccc(=O)c(C(N)=O)c4)nc3)c3cncc(Cl)c32)C1 [BCD-BTK-207, (R)-1-(5-(1-(1-acryloylpiperidin-3-yl)-7-chloro-1H-pyrazolo[4,3-c]pyridin-3-yl)pyrimidin-2-yl)-4-oxo-1,4-dihydropyridine-3-carboxamide] | 82.6% |  | 
15 | C=CC(=O)N1CC(Cn2nc(-c3ccc(Oc4ccncc4)cc3)c3cncc(Cl)c32)C1 [BCD-BTK-264, 1-(3-((7-chloro-3-(4-(pyridin-4-yloxy)phenyl)-1H-pyrazolo[4,3-c]pyridin-1-yl)methyl)azetidin-1-yl)prop-2-en-1-one] |  | 97.8% | IC50 [3]: 4.92 µM; IC50 [4]: 14.3 µM; CC50 at 72 h [5]: 10.5 µM; CC50 (HepG2)/IC50 (Mino) [6]: 2.13
16 | CC#CC(=O)N1CC[C@H](n2nc(-c3ccc(Oc4ccncc4)cc3)c3cncc(Cl)c32)C1 [BCD-BTK-270, (S)-1-(3-(7-chloro-3-(4-(pyridin-4-yloxy)phenyl)-1H-pyrazolo[4,3-c]pyridin-1-yl)pyrrolidin-1-yl)but-2-yn-1-one] |  | 99.1% | IC50 [3]: 6.79 µM; IC50 [4]: 14.3 µM; CC50 at 72 h [5]: 23.4 µM; CC50 (HepG2)/IC50 (Mino) [6]: 3.45
17 | C=CC(=O)N1CC[C@@H](Cn2nc(-c3ccc(C(=O)Nc4ccccn4)cc3)c3cncc(Cl)c32)C1 [BCD-BTK-284, (R)-4-(1-((1-acryloylpyrrolidin-3-yl)methyl)-7-chloro-1H-pyrazolo[4,3-c]pyridin-3-yl)-N-(pyridin-2-yl)benzamide] |  | 100% | IC50 [3]: 27.9 µM; IC50 [4]: 115 µM; CC50 at 72 h [5]: > 100 µM; CC50 (HepG2)/IC50 (Mino) [6]: >3.59
18 | C=CC(=O)N1CC[C@H](Cn2nc(-c3ccc(C(=O)Nc4ccccn4)cc3)c3cncc(Cl)c32)C1 [BCD-BTK-285, (S)-4-(1-((1-acryloylpyrrolidin-3-yl)methyl)-7-chloro-1H-pyrazolo[4,3-c]pyridin-3-yl)-N-(pyridin-2-yl)benzamide] |  | 100% | IC50 [3]: 10.1 µM; IC50 [4]: > 34.6 µM; CC50 at 72 h [5]: > 100 µM; CC50 (HepG2)/IC50 (Mino) [6]: >9.91
